The target of this test is T1, Recombinant human BRD4 containing dual bromodomains (BRD4-BD12 (1-477)) (Homo sapiens, UniProt O60885).
T1 construct: Recombinant human BRD4 containing dual bromodomains (BRD4-BD12 (1-477)); made in house; host or cells: E. coli BL21-CodonPlus (DE3), modified pET vector
The test can be described thus: BRD4 Alphascreen binding assay. As to the method: BRD4 Alphascreen Binding Assay
Binding of compounds of Formula (I) with BRD4 was assessed using Alphascreen binding assay. The inhibition of the interaction between BRD4 and its acetylated target protein was measured quantitatively using recombinant BRD4 protein, an acetylated Histone 4 peptide, and AlphaScreen™ technology. In absence of inhibition of the BRD4 protein bound to AlphaScreen™ nickel chelate acceptor beads can interact with the acetylated Histone 4 peptide which was immobilized by the AlphaScreen™ Streptavidin coated beads. This interaction brings donor and acceptor beads in proximity. The close proximity allows the singlet oxygen produced by laser excitation of the donor beads to reach the acceptor beads and generate a luminescence signal. BRD4 inhibitors result in a decrease in the proximity signal through an inhibition of the BRD4—acetylated peptide interaction.
Recombinant human BRD4 containing dual bromodomains (BRD4-BD12 (1-477)) was prepared and purified as described in protein expression and purification session. The peptide was human Histone H41-21K5AcK8AcK12AcK16Ac-Biotin (Anaspec CA, USA).
Protocol for BRD4 assay: All components are prepared in buffer composed of 50 mM HEPES pH 7.5, 50 mM NaCl, 0.01% BSA, 0.01% Triton X-100, 2 mM DTT. Test compounds and DMSO vehicle are diluted 1:50 in buffer and a 4 μL volume was transferred to an Alphaplate. 5.5 μL of Bromodomain protein and 5.5 μL of peptide are added to wells containing 4 μL of various concentrations of test compounds of Formula (I) or DMSO vehicle in an Alphaplate (PerkinElmer GA, USA) and incubated for 1 hour at room temperature. 5 μL donor and acceptor bead mixture was then added with final concentrations of 7.5 μg/ml. 30 minutes after bead addition, Alpha signal was read on the Envision spectrometer (λEx 680 nm, λEm 520-620 nm). Final concentrations of bromodomain proteins and peptide are as shown below.
All data were normalized to the mean of 16 high and 16 low control wells on each plate. A four parameter curve fit of the following formula was then applied: Y=A+((B−A)/(1+((C/x)^D))) Where ‘A’ is the minimum, ‘B’ is the maximum, ‘C’ is the IC50 and ‘D’ is the Hill slope. Protein Expression and Purification
Recombinant human BRD4 containing dual bromodomains (BRD4-BD12 (1-477)) was expressed in E. coli cells (in a modified pET vector) with an N-terminal six-His tag and purified using a combination of both IMAC (Ni-affinity) and size exclusion chromatography steps.
Recombinant BRD4 was expressed using the E. coli strain BL21-CodonPlus (DE3) (Agilent Technologies CA, USA). Cells were grown in Terrific Broth (TB) media to an OD600 of 2.0 at 37° C. at which temperature was reduced to 18° C., protein was induced with 0.1 mM isopropyl-β-D-thiogalactopyranoside (“IPTG”) for 12-18 hours and harvested by centrifugation at 8000×g for 20 minutes. Cells were re-suspended in 40 mM Tris-HCl pH 8.0, 0.5 M NaCl, 25 mM Imidazole, 5% glycerol, 1/200 vol. Protease Inhibitor Cocktail Set III (Calbiochem), 5 mM beta-mercaptoethanol (“BME”), 0.5 mg/mL Lysozyme, and 0.5 mg/mL DNaseI, incubated on ice for 30 minutes and lysed with a cell disruptor (MicroFluidics MA, USA). The lysate was clarified by centrifugation at 20,000×g for 2 hours. The protein was captured with Ni-NTA resin (Life Technologies, USA). Contaminating proteins were washed off with 40 mM Tris-HCl pH 8.0, 0.5 M NaCl, 25 mM Imidazole, 5% glycerol, and 5 mM BME. Following 3× wash steps, protein was eluted step wise into wash buffer containing 50, 100, 150, 500 mM Imidazole. The protein was further purified using Gel Filtration column 16/60 Superdex 200 (GE Biosciences NJ, USA) in 10 mM HEPES pH 8.0, 150 mM NaCl, and 5 mM DTT. Glycerol was added to a final concentration of 12% and the protein was aliquoted and flash-frozen in liquid Nitrogen.

With `Cc1noc(C)c1-c1cnc2c(c1)c(-c1ccc(C(=O)O)cc1OC1COC1)cn2[C@@H](C)c1ccccn1` [P-0137, (S)-4-(5-(3,5-dimethylisoxazol-4-yl)-1-(1-(pyridin-2-yl)ethyl)-1H-pyrrolo[2,3-b]pyridin-3-yl)-3-(oxetan-3-yloxy)benzoic acid], the IC50 was 8 to 1000 µM.
The same measure for `Cc1noc(C)c1-c1cnc2c(c1)c(-c1ccc(C(=O)O)cc1OCC1CC1)cn2[C@@H](C)c1ccccn1` [P-0138, (S)-3-(cyclopropylmethoxy)-4-(5-(3,5-dimethylisoxazol-4-yl)-1-(1-(pyridin-2-yl)ethyl)-1H-pyrrolo[2,3-b]pyridin-3-yl)benzoic acid]: 8 to 1000 µM; for `Cc1noc(C)c1-c1cnc2c(c1)c(-c1ccc(C(=O)O)cc1OCc1ccccc1)cn2[C@@H](C)c1ccccn1` [P-0139, (S)-3-(benzyloxy)-4-(5-(3,5-dimethylisoxazol-4-yl)-1-(1-(pyridin-2-yl)ethyl)-1H-pyrrolo[2,3-b]pyridin-3-yl)benzoic acid]: 8 to 1000 µM.
`COc1ccc(C(=O)O)cc1-c1cn(C(C)c2ccccc2)c2cc(-c3c(C)noc3C)cnc12` (stereo not shown) [P-0140, 3-(6-(3,5-dimethylisoxazol-4-yl)-1-(1-phenylethyl)-1H-pyrrolo[3,2-b]pyridin-3-yl)-4-methoxybenzoic acid]: the IC50 fell in the range of 8 to 1000 µM.
As for `Cc1noc(C)c1-c1cnc2c(-c3cc(C(=O)O)ccc3Cl)cn(C(C)c3ccccc3)c2c1` (stereo not shown) [P-0141, 4-chloro-3-(6-(3,5-dimethylisoxazol-4-yl)-1-(1-phenylethyl)-1H-pyrrolo[3,2-b]pyridin-3-yl)benzoic acid], the IC50 fell in the range of 8 to 1000 µM.
Then `COc1cc(C(=O)O)ccc1-c1cn([C@@H](C)c2ccccn2)c2cc(-c3c(C)noc3C)cnc12` [P-0142, (S)-4-(6-(3,5-dimethylisoxazol-4-yl)-1-(1-(pyridin-2-yl)ethyl)-1H-pyrrolo[3,2-b]pyridin-3-yl)-3-methoxybenzoic acid], with 0.0001 to 1 µM.
Then `Cc1noc(C)c1-c1cnc2c(CC3CCC3)cn(-c3ccc(O)nc3)c2c1` [P-0143, 5-(3-(cyclobutylmethyl)-6-(3,5-dimethylisoxazol-4-yl)-1H-pyrrolo[3,2-b]pyridin-1-yl)pyridin-2-ol], with 8 to 1000 µM.
Then `COc1cc(C(=O)O)cc(O)c1-c1cn([C@@H](C)c2ccccn2)c2ncc(-c3c(C)noc3C)cc12` [P-0144, (S)-4-(5-(3,5-dimethylisoxazol-4-yl)-1-(1-(pyridin-2-yl)ethyl)-1H-pyrrolo[2,3-b]pyridin-3-yl)-3-hydroxy-5-methoxybenzoic acid], with 8 to 1000 µM; and `Cc1noc(C)c1-c1cnc2c(c1)c(-c1ccnc(O)c1)cn2[C@@H](C)c1ccccn1` [P-0145, (S)-4-(5-(3,5-dimethylisoxazol-4-yl)-1-(1-(pyridin-2-yl)ethyl)-1H-pyrrolo[2,3-b]pyridin-3-yl)pyridin-2-ol], with 8 to 1000 µM.
In the case of `COc1cc(C(=O)O)cc(OC)c1-c1cn([C@@H](C)c2ccccn2)c2cc(-c3c(C)noc3C)cnc12` [P-0146, (S)-4-(6-(3,5-dimethylisoxazol-4-yl)-1-(1-(pyridin-2-yl)ethyl)-1H-pyrrolo[3,2-b]pyridin-3-yl)-3,5-dimethoxybenzoic acid], the IC50 was in the range of 8 to 1000 µM.
With `CCOc1cc(C(=O)O)cc(OCC)c1-c1cn([C@@H](C)c2ccccn2)c2ncc(-c3c(C)noc3C)cc12` [P-0147, (S)-4-(5-(3,5-dimethylisoxazol-4-yl)-1-(1-(pyridin-2-yl)ethyl)-1H-pyrrolo[2,3-b]pyridin-3-yl)-3,5-diethoxybenzoic acid], the IC50 was in the range of 8 to 1000 µM.
On to `CC[C@@H](c1ccccn1)n1cc(-c2cc(C(=O)O)ccc2Cl)c2ncc(-c3c(C)noc3C)cc21` [P-0148, (S)-4-chloro-3-(6-(3,5-dimethylisoxazol-4-yl)-1-(1-(pyridin-2-yl)propyl)-1H-pyrrolo[3,2-b]pyridin-3-yl)benzoic acid], for which the IC50 lay in the range of 1 to 8 µM.
Then `Cc1noc(C)c1-c1cc2c(cn1)c(CC1CCC1)cn2-c1c(Cl)cc(C(=O)O)cc1Cl` [P-0149, 3,5-dichloro-4-(3-(cyclobutylmethyl)-6-(3,5-dimethylisoxazol-4-yl)-1H-pyrrolo[3,2-c]pyridin-1-yl)benzoic acid], with 8 to 1000 µM; and `Cc1noc(C)c1-c1cnc2c(-c3ccccc3)cn(-c3c(Cl)cc(C(=O)O)cc3Cl)c2c1` [P-0150, 3,5-dichloro-4-(6-(3,5-dimethylisoxazol-4-yl)-3-phenyl-1H-pyrrolo[3,2-b]pyridin-1-yl)benzoic acid], with 1 to 8 µM; and `Cc1noc(C)c1-c1cnc2c(C3=CCOCC3)cn(-c3c(Cl)cc(C(=O)O)cc3Cl)c2c1` [P-0151, 3,5-dichloro-4-(3-(3,6-dihydro-2H-pyran-4-yl)-6-(3,5-dimethylisoxazol-4-yl)-1H-pyrrolo[3,2-b]pyridin-1-yl)benzoic acid], with 1 to 8 µM.
Consider `COc1cc(C(=O)O)cc(OCC2CC2)c1-c1cn([C@@H](C)c2ccccn2)c2ncc(-c3c(C)noc3C)cc12` [P-0152, (S)-3-(cyclopropylmethoxy)-4-(5-(3,5-dimethylisoxazol-4-yl)-1-(1-(pyridin-2-yl)ethyl)-1H-pyrrolo[2,3-b]pyridin-3-yl)-5-methoxybenzoic acid], for which the IC50 fell in the range of 8 to 1000 µM.
As for `COc1cc(C(=O)O)cc(OCC(F)(F)F)c1-c1cn([C@@H](C)c2ccccn2)c2ncc(-c3c(C)noc3C)cc12` [P-0153, (S)-4-(5-(3,5-dimethylisoxazol-4-yl)-1-(1-(pyridin-2-yl)ethyl)-1H-pyrrolo[2,3-b]pyridin-3-yl)-3-methoxy-5-(2,2,2-trifluoroethoxy)benzoic acid], the IC50 is 8 to 1000 µM.
Then `Cc1noc(C)c1-c1cnc2c(-c3ccc(C(=O)O)cc3)c(C(F)(F)F)n([C@@H](C)c3ccccn3)c2c1` [P-0154, (S)-4-(6-(3,5-dimethylisoxazol-4-yl)-1-(1-(pyridin-2-yl)ethyl)-2-(trifluoromethyl)-1H-pyrrolo[3,2-b]pyridin-3-yl)benzoic acid], with 0.0001 to 1 µM.
Then `Cc1noc(C)c1-c1cnc2c(-c3ccccc3Cl)cn(C(C)(c3ccccn3)c3ccccn3)c2c1` [P-0155, 4-(3-(2-chloropheny1)-1-(1,1-di(pyridin-2-yl)ethyl)-1H-pyrrolo[3,2-b]pyridin-6-yl)-3,5-dimethylisoxazole], with 0.0001 to 1 µM; and `Cc1noc(C)c1-c1cnc2c(c1)c(-c1ccc(C(=O)O)cc1OC(F)(F)F)cn2C(C1CC1)C1CC1` [P-0156, 4-(1-(dicyclopropylmethyl)-5-(3,5-dimethylisoxazol-4-yl)-1H-pyrrolo[2,3-b]pyridin-3-yl)-3-(trifluoromethoxy)benzoic acid], with 8 to 1000 µM.
Regarding `Cc1noc(C)c1-c1cnc2c(c1)c(-c1ccc(C(=O)O)cc1OC(F)(F)F)cn2CC1CC(F)(F)C1` [P-0157, 4-(1-((3,3-difluorocyclobutyl)methyl)-5-(3,5-dimethylisoxazol-4-yl)-1H-pyrrolo[2,3-b]pyridin-3-yl)-3-(trifluoromethoxy)benzoic acid], the IC50 is 0.0001 to 1 µM.
Then `Cc1noc(C)c1-c1cnc2c(c1)c(-c1ccc(C(=O)O)cc1OC(F)(F)F)cn2-c1ccccn1` [P-0158, 4-(5-(3,5-dimethylisoxazol-4-yl)-1-(pyridin-2-yl)-1H-pyrrolo[2,3-b]pyridin-3-yl)-3-(trifluoromethoxy)benzoic acid], with 0.0001 to 1 µM.

The values above are taken from patent US11446287B2, “Compounds and methods for EP300 or CBP modulation and indications therefor” (Opna Immuno-Oncology SA, priority 2019, dated 2022).
